From US20260297105A1, “RAF-MEK PROTEIN COMPLEX MODULATORS AND METHODS OF USE THEREOF” (GANDEEVA THERAPEUTICS, INC., priority 2023, published 2026)

Biological target: T1, MEK1 (Homo sapiens, UniProt Q02750)
T1 construct: purchased SignalChem M02-14H
Assay: MEK1 kinase cascade assay (ADP-Glo), inhibition of MEK1 kinase activity
Format: biochemical
Settings: 25 nM BRAF, 6.25 nM MEK1, 0.5 μM ERK, 1 mM ATP; 20 min preincubation, 1 hr at 25° C.; read-out: BRAF ADP Glo kinase assay V3 (IC50)
Text: Protein expression and purification: BRAF (445-723) with N-term His-tag and C-term StrepII tag was expressed using the Expi293 system (ThermoFisher) and purified using Strep-Tactin® XT-Superflow (IBA) chromatography. ERK1 (full-length) with N-term His-tag was expressed in Rosetta DE3 cells (Millipore) and purified using HisTrap HP (Cytiva) and Superdex 200 (Cytiva) column chromatography. Full-length MEK1 for TR-FRET assays with N-term His-tag was expressed in BL21DE3 cells (ThermoFisher) and purified using HisTrap HP (Cytiva) and Superdex 200 (Cytiva) column chromatography.
Efficacy of exemplary compounds in inhibition of MEK1 kinase activity: The effect of compound MEK1 inhibition was evaluated using an ADP detection system for kinases, such as the ADP-Glo assay (Promega). The MEK1 kinase cascade assay consisted of 9 μL reaction volumes in 384-well white, opaque Optiplates (PerkinElmer). Compounds were prepared from DMSO stocks in assay buffer (10 mM HEPES pH 7.5, 5 mM MgCl2, 2 mM CHAPS, and 1 mM DTT) and preincubated with 25 nM BRAF for 20 mins at 25° C. prior to addition of 6.25 nM MEK1/0.5 μM ERK/1 mM ATP premix to initiate the kinase reaction. Both BRAF and ERK1 were produced in-house, and MEK1 was purchased from SignalChem (M02-14H). DMSO was kept constant at a final concentration of 1%. After a 1 hr incubation at 25° C., conversion of ATP to ADP was detected using ADP-Glo™ reagents according to the manufacturer's protocol. Luminescence was measured using a CLARIOstar microplate reader (BMG). Percent (%) Inhibition was calculated by normalizing to DMSO control (max) and 1 μM Trametinib (min). % inhibition as a function of compound concentration from 2 replicate wells was fit with a 4-parameter logistic curve equation using GraphPad Prism or CDD Vault to derive IC50 values.
In this table, for the BRAF ADP Glo kinase assay, “A” indicates IC50 of less than 5 nM; “B” indicates IC50 of between 5 nM to 50 nM; and “C” indicates IC50 of between 50 nM to 500 nM. “D” indicates IC50 of greater than 500 nM. For the BRAF-MEK TR-FRET assay, “A” indicates EC50 of less than 50 nM; “B” indicates EC50 of between 50 nM to 200 nM; and “C” indicates EC50 of between 200 nM to 1 μM. “D′” indicates EC50 of greater than 1 μM. For the AlphaLisa P-ERK assay, “A” indicates IC50 of less than 1 nM; “B” indicates IC50 of between 1 nM to 10 nM; and “C” indicates IC50 of between 10 nM to 100 nM. “D” indicates IC50 of greater than 100 nM. For the cell viability assay, “A” indicates IC50 of less than 1 nM; “B” indicates IC50 of between 1 nM to 10 nM; and “C” indicates IC50 of between 10 nM to 100 nM. “D” indicates IC50 of greater than 100 nM.

T1 sequence (Q02750 whole entry): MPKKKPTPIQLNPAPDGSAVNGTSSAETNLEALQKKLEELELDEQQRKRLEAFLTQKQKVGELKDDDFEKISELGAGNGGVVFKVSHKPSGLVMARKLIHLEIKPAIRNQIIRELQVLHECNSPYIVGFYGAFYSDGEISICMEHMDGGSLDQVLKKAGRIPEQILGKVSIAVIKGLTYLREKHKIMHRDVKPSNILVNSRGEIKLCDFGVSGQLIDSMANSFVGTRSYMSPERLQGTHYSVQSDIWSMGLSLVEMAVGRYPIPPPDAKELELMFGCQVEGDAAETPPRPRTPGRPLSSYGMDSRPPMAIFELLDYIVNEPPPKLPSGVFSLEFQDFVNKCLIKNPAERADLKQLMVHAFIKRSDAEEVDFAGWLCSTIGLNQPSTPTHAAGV
T1 sequence (P15056 445-723 partner limits assumed): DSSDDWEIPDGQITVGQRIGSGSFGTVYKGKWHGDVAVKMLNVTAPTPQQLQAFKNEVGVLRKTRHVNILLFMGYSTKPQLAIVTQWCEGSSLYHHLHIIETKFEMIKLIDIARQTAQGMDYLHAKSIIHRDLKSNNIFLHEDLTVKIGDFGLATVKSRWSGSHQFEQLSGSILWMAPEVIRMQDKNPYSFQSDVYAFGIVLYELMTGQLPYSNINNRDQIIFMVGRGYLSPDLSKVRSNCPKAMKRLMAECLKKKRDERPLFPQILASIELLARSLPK

SMILES	IC50
C[C@@H]1c2c(F)cc(Oc3cccnn3)cc2OC(=O)N1Cc1cccc(NS(=O)(=O)C2CC2)c1F (single isomer, unassigned) [Compound 54]	50 to 500 nM
CNS(=O)(=O)Nc1cccc(CN2C(=O)Oc3cc(Oc4ncco4)c(F)cc3[C@@H]2C)c1F (single isomer, unassigned) [Compound 84, (S)-6-fluoro-3-({2-fluoro-3-(methylsulfamoyl)amino]phenyl}methyl)-4-methyl-7-(1,3-oxazol-2-yloxy)-3,4-dihydro-2H-1,3-benzoxazin-2-one or (R)-6-fluoro-3-({2-fluoro-3-(methylsulfamoyl)amino]phenyl}methyl)-4-methyl-7-(1,3-oxazol-2-yloxy)-3,4-dihydro-2H-1,3-benzoxazin-2-one]	5 to 50 nM
CNS(=O)(=O)Nc1cccc(CN2C(=O)Oc3cc(Oc4ncco4)cnc3[C@H]2C)c1F (stereo in doubt) [Compound 189, 3-{[2-fluoro-3-(methylaminosulfonylamino)phenyl]methyl}-4-methyl-7-(1,3-oxazol-2-yloxy)-3,4-dihydro-2H-1-oxa-3,5-diazanaphthalen-2-one]	50 to 500 nM
CNS(=O)(=O)Nc1nccc(CN2C(=O)Oc3cc(Oc4ncco4)cnc3[C@@H]2C)c1F (stereo in doubt) [Compound 190, 3-{[3-fluoro-2-(methylaminosulfonylamino)-4-pyridyl]methyl}-4-methyl-7-(1,3-oxazol-2-yloxy)-3,4-dihydro-2H-1-oxa-3,5-diazanaphthalen-2-one]	5 to 50 nM
O=C1Oc2cc(Oc3cccnn3)ccc2CN1Cc1cccc(N2CCOC2=O)c1F [Compound 26, 3-{[2-fluoro-3-(2-oxo-1,3-oxazolidin-3-yl)phenyl]methyl}-7-(3-pyridazinyloxy)-3,4-dihydro-2H-1,3-benzoxazin-2-one]	50 to 500 nM
CN(C)C(=O)Oc1ccc2c(c1)OC(=O)N(Cc1cccc(N3CCOC3=O)c1F)C2 [Compound 27, dimethylamino-3-{[2-fluoro-3-(2-oxo-1,3-oxazolidin-3-yl)phenyl]methyl}-2-oxo-3,4-dihydro-2H-1,3-benzoxazin-7-ylformylate]	> 500 nM
CNS(=O)(=O)Cc1cccc(CN2Cc3ccc(OC(=O)N(C)C)cc3OC2=O)c1F [Compound 45, 3-(2-fluoro-3-((N-methylsulfamoyl)methyl)benzyl)-2-oxo-3,4-dihydro-2H-benzo[e][1,3]oxazin-7-yl dimethylcarbamate]	> 500 nM
CNS(=O)(=O)Cc1cccc(CN2C(=O)Oc3cc(Oc4cccnn4)ccc3C23COC3)c1F [Compound 46, 1-(2-fluoro-3-{[2-oxo-7-(pyridazin-3-yloxy)-2,3-dihydrospiro[1,3-benzoxazine-4,3′-oxetan]-3-yl]methyl}phenyl)-N-methylmethanesulfonamide]	50 to 500 nM
CNS(=O)(=O)Cc1cccc(CN2C(=O)Oc3cc(OC(=O)N(C)C)ccc3C23COC3)c1F [Compound 47, 3-({2-fluoro-3-[(methylsulfamoyl)methyl]phenyl}methyl)-2-oxo-2,3-dihydrospiro[1,3-benzoxazine-4,3′-oxetan]-7-yl N,N-dimethylcarbamate]	50 to 500 nM
CNS(=O)(=O)Nc1cccc(CN2C(=O)Oc3cc(Oc4ccccn4)ccc3C23COC3)c1F [Compound 50, 3-({2-fluoro-3-[(methylsulfamoyl)amino]phenyl}methyl)-7-(pyridin-2-yloxy)-2,3-dihydrospiro[1,3-benzoxazine-4,3′-oxetan]-2-one]	5 to 50 nM
O=C1Oc2cc(Oc3cccnc3)ccc2CN1Cc1cccc(NS(=O)(=O)C2CC2)c1F [Compound 60, (cyclopropylsulfonyl)(2-fluoro-3-{[2-oxo-7-(3-pyridyloxy)-3,4-dihydro-2H-1,3-benzoxazin-3-yl]methyl}phenyl)amine]	50 to 500 nM
CNS(=O)(=O)Nc1cccc(CN2Cc3ccc(Oc4cccnc4)cc3OC2=O)c1F [Compound 61, 3-{[2-fluoro-3-(methylaminosulfonylamino)phenyl]methyl}-7-(3-pyridyloxy)-3,4-dihydro-2H-1,3-benzoxazin-2-one]	5 to 50 nM
O=C1Oc2cc(Oc3cnccn3)ccc2C2(COC2)N1Cc1cccc(NS(=O)(=O)C2CC2)c1F [Compound 69, N-(2-fluoro-3-{[2-oxo-7-(pyrazin-2-yloxy)-2,3-dihydrospiro[1,3-benzoxazine-4,3′-oxetan]-3-yl]methyl}phenyl)cyclopropanesulfonamide]	50 to 500 nM
CNS(=O)(=O)Nc1cccc(CN2C(=O)Oc3cc(Oc4cnccn4)ccc3C23COC3)c1F [Compound 70, 3-({2-fluoro-3-[(methylsulfamoyl)amino]phenyl}methyl)-7-(pyrazin-2-yloxy)-2,3-dihydrospiro[1,3-benzoxazine-4,3′-oxetan]-2-one]	50 to 500 nM

Results, then the compound that gave them:

IC50	SMILES
50 to 500 nM	CNS(=O)(=O)Nc1cccc(CN2C(=O)Oc3cc(Oc4ncco4)cc(F)c3[C@H]2C)c1F (single isomer, unassigned) [Compound 87, (R)-5-fluoro-3-({2-fluoro-3-(methylsulfamoyl)amino]phenyl}methyl)-4-methyl-7-(1,3-oxazol-2-yloxy)-3,4-dihydro-2H-1,3-benzoxazin-2-one or (S)-5-fluoro-3-({2-fluoro-3-(methylsulfamoyl)amino]phenyl}methyl)-4-methyl-7-(1,3-oxazol-2-yloxy)-3,4-dihydro-2H-1,3-benzoxazin-2-one]
5 to 50 nM	CNS(=O)(=O)Nc1cccc(CN2C(=O)Oc3c(ccc(Oc4ncco4)c3F)[C@H]2C)c1F (single isomer, unassigned) [Compound 90, (R)-8-fluoro-3-({2-fluoro-3-(methylsulfamoyl)amino]phenyl}methyl)-4-methyl-7-(1,3-oxazol-2-yloxy)-3,4-dihydro-2H-1,3-benzoxazin-2-one or (S)-8-fluoro-3-({2-fluoro-3-(methylsulfamoyl)amino]phenyl}methyl)-4-methyl-7-(1,3-oxazol-2-yloxy)-3,4-dihydro-2H-1,3-benzoxazin-2-one]
5 to 50 nM	CNS(=O)(=O)Nc1cccc(CN2C(=O)Oc3c(ccc(Oc4ncccn4)c3F)[C@@H]2C)c1F (single isomer, unassigned) [Compound 92, (S)-8-fluoro-3-({2-fluoro-3-(methylsulfamoyl)amino]phenyl}methyl)-4-methyl-7-(pyrimidin-2-yloxy)-3,4-dihydro-2H-1,3-benzoxazin-2-one or (R)-8-fluoro-3-({2-fluoro-3-(methylsulfamoyl)amino]phenyl}methyl)-4-methyl-7-(pyrimidin-2-yloxy)-3,4-dihydro-2H-1,3-benzoxazin-2-one]
5 to 50 nM	CNS(=O)(=O)Nc1cccc(CN2C(=O)Oc3c(ccc(Oc4ncccn4)c3F)[C@H]2C)c1F (single isomer, unassigned) [Compound 93, (R)-8-fluoro-3-({2-fluoro-3-(methylsulfamoyl)amino]phenyl}methyl)-4-methyl-7-(pyrimidin-2-yloxy)-3,4-dihydro-2H-1,3-benzoxazin-2-one or (S)-8-fluoro-3-({2-fluoro-3-(methylsulfamoyl)amino]phenyl}methyl)-4-methyl-7-(pyrimidin-2-yloxy)-3,4-dihydro-2H-1,3-benzoxazin-2-one]
> 500 nM	CNS(=O)(=O)Nc1cccc(CN2C(=O)Oc3c(ccc(Oc4ncccn4)c3F)C23COC3)c1F [Compound 88]
> 500 nM	CNS(=O)(=O)Nc1cccc(CN2Cc3ccc(OC4COC4)cc3OC2=O)c1F [Compound 98, 3-{[2-fluoro-3-(methylaminosulfonylamino)phenyl]methyl}-7-(3-oxetanyloxy)-3,4-dihydro-2H-1,3-benzoxazin-2-one]
5 to 50 nM	CNS(=O)(=O)Nc1cccc(CN2Cc3cc(C)c(Oc4ncccn4)cc3OC2=O)c1F [Compound 111, 3-({2-fluoro-3-[(methylsulfamoyl)amino]phenyl}methyl)-6-methyl-7-(pyrimidin-2-yloxy)-3,4-dihydro-2H-1,3-benzoxazin-2-one]
5 to 50 nM	CNS(=O)(=O)Nc1cccc(CN2Cc3ccc(Oc4ncccn4)cc3OC2=O)c1F [Compound 157, 3-({2-fluoro-3-[(methylsulfamoyl)amino]phenyl}methyl)-7-(pyrimidin-2-yloxy)-3,4-dihydro-2H-1,3-benzoxazin-2-one]
